Data: PubChem BioAssay AID977630 (Broad Institute, 2014)
Results filed as inconclusive are left out. The source made the active and inactive calls.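 How the source made its calls: active means Normal-ribosome green reporter loss at least double humanized-ribosome red reporter loss, with overall culture growth inhibition under a set limit; inconclusive means no clear call, values can overlap the other calls; inactive means the rest.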

System: E. coli wild-type GFP growth, mixed culture, 24 h
Assay: growth inhibition of wild-type GFP E. coli, H38-humanized RFP comparator, dose response, H38 mutant RFP vs wild-type GFP, cherry-pick (AID 977630);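 further: wild-type GFP strain mixed equally with humanized-ribosome H38 mutant expressing RFP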
[1] = E. coli mixed culture total OD600 growth, 24 h

Compound | AC50 | AC50 [1] [µM]
O=C(Nc1cccc(O)c1)c1cccc(S(=O)(=O)Nc2cccc(O)c2)c1 | > 100 µM (inactive) | > 100
CN(C)CCCN(C(=O)COc1ccc(Cl)cc1)c1nc2ccc(F)cc2s1 | > 100 µM (inactive) | 
Cc1ccsc1C(=O)C1CCCN(Cc2cc(F)ccc2-n2cccn2)C1 (centres undefined) | > 100 µM (inactive) | > 100
O=C(CCCOc1ccc(Cl)cc1Cl)Nc1ccccc1C(=O)O | > 100 µM (inactive) | > 100
COC(=O)c1ccsc1NC(=O)c1cccc(OC)c1 |  | > 100
Cc1cccc(CN2C(=O)c3ccccc3Sc3ccc(C(=O)NCCN4CCOCC4)cc32)c1 |  | > 100
O=S(=O)(c1ccccc1)N1CCN=C1SCc1cccc(Cl)c1 | > 100 µM (inactive) | > 100
Cc1ccc(NC(=O)c2ccc([N+](=O)[O-])s2)cc1S(=O)(=O)N1CCOCC1 | > 100 µM (inactive) | > 100
CC(=O)OC(COc1cccc(C)c1)Cn1cnc2ccccc21 (centres undefined) | > 100 µM (inactive) | > 100
CCN(CC)C(=O)c1ccc(COc2ccccc2Cl)o1 | > 100 µM (inactive) | > 100
CN(C)S(=O)(=O)c1ccc(Cl)c(C(=O)OCC(=O)NC(=O)c2cccn2C)c1 | > 100 µM (inactive) | 
CC(C)(C)CC(=O)NCCc1csc(-c2ccccc2)n1 | > 100 µM (inactive) | 
CCCCn1c(NS(=O)(=O)c2ccc(C)cc2)c(C(=O)OCC)c2nc3ccccc3nc21 | > 100 µM (inactive) | > 100
C=CCn1c(C)cc(C(=O)CSc2nnc(C3CC3)n2C2CC2)c1C | > 100 µM (inactive) | > 100
CC1CCN(C(=O)COC(=O)c2ccccc2NC(=O)c2ccco2)CC1 | > 100 µM (inactive) | 
Cc1ccsc1C(=O)OCC(=O)N1CCc2ccccc2C1 | > 100 µM (inactive) | 
CCc1cccc(NC(=O)c2ccc3c(=O)n4c(nc3c2)CCCCC4)c1 | > 100 µM (inactive) | 
CCOc1cccc(-c2cc(-c3n[nH]c(=S)n3CC)c3ccccc3n2)c1 | > 100 µM (inactive) | 
CC(=O)c1c(C)nn(CC(O)COc2ccc3c(c2)CCC3)c1C (centres undefined) | > 100 µM (inactive) | > 100
CCS(=O)(=O)N1CCN(c2ccnc3cc(Cl)ccc23)CC1 | > 100 µM (inactive) | > 100
COC(=O)c1sccc1NC(=O)CNC(=O)c1ccccc1 |  | > 100
O=C(Nc1ccc2nc(-c3cccnc3)[nH]c2c1)c1ccco1 | > 100 µM (inactive) | 
CCc1nc2ccccc2n1CCc1ccccc1 | > 100 µM (inactive) | 

Compound | AC50 | AC50 [1] [µM]
C=CCN(CC=C)C(=O)c1ccc2nc(Cc3ccc(OC)c(OC)c3)oc2c1 | > 100 µM (inactive) | 
CC(=O)Nc1ccc(OCC(=O)N2CCC(Cc3ccccc3)CC2)cc1 | > 100 µM (inactive) | 
O=c1c2cc(Br)ccc2[nH]c(=S)n1Cc1ccccc1 | > 100 µM (inactive) | 
COc1cc(OC)cc(C(=O)Nc2ccc(C(=O)Nc3ccccc3OC)cc2)c1 | > 100 µM (inactive) | 
COc1ccccc1CN1Cc2ccccc2Oc2ccccc2S1(=O)=O | > 100 µM (inactive) | > 100
O=[N+]([O-])c1ccccc1Oc1ccc(Cl)c2cccnc12 | > 100 µM (inactive) | 
Cc1cccc(C(=O)NCC(=O)N2CC=C(c3ccccc3)CC2)c1 | > 100 µM (inactive) | 
O=C1c2ccccc2C(c2nnnn2C2CCCCC2)N1CCc1ccc(O)cc1 (centres undefined) | > 100 µM (inactive) | > 100
O=C(O)c1ccc(Oc2ccc([N+](=O)[O-])cc2)c([N+](=O)[O-])c1 | > 100 µM (inactive) | 
CC(=O)Nc1ccc(CNc2nc(NCCN(C)C)nc3cc(-c4ccccc4)sc23)cc1 | > 100 µM (inactive) | 
COC(=O)c1cc2c(c3c4cc(F)ccc4n(S(=O)(=O)c4ccccc4)c13)C(=O)N(Cc1ccco1)C2 | > 100 µM (inactive) | 
CC(C)(C)C1CCC(C(=O)OCC(=O)N2CCN(C(=O)c3ccco3)CC2)CC1 (centres undefined) | > 100 µM (inactive) | 
CCN(c1ccccc1)S(=O)(=O)c1ccc(OC)c(NC(=O)C2CC(=O)N(Cc3ccccc3)C2)c1 (centres undefined) | > 100 µM (inactive) | 
O=C(O)c1ccc2c(c1)N(Cc1ccccc1)C(=O)c1ccccc1S2 | > 100 µM (inactive) | > 100
COC(=O)c1c(NC(=O)CCC(=O)O)sc(Cc2ccccc2)c1C | 3.63 µM | 
CCN(CC(=O)Nc1cccc(C#N)c1)CC(=O)Nc1cccc(OC)c1 | > 100 µM (inactive) | 
Cc1ccc(S(=O)(=O)N2CCOCC2)cc1NC(=O)COc1ccc(-c2nnco2)cc1 | > 100 µM (inactive) | 
CC(=O)N1CCOc2ccc(S(=O)(=O)N(C)c3ccc(C)cc3)cc21 | > 100 µM (inactive) | 
C=CCNC(=O)c1ccccc1CCc1ccccc1 | > 100 µM (inactive) | 
O=C(NCc1ccc2c(c1)OCO2)C1CCCN1S(=O)(=O)c1ccc(Cl)cc1 (centres undefined) | > 100 µM (inactive) | 
COc1cc(CC(=O)Nc2nc(C)cs2)cc(OC)c1OC |  | > 100
O=C(Nc1ccccc1N1CCN(C(=O)c2ccccc2)CC1)c1ccc([N+](=O)[O-])o1 | > 100 µM (inactive) | 
Brc1ccc(Nc2ncnc3[nH]ncc23)cc1 | > 100 µM (inactive) | 

Compound | AC50 | AC50 [1] [µM]
Cc1cc(C)n2nc(C(=O)Nc3cccc(S(=O)(=O)N(C)c4ccccc4)c3)nc2n1 | > 100 µM (inactive) | 
Cc1ccc(-c2nc(CN3CCCCC3c3cccc(F)c3)c(C)o2)o1 (centres undefined) | > 100 µM (inactive) | 
COc1ccc2[nH]c3c(=O)n(CCCCC(=O)NCCC(C)C)c(=S)[nH]c3c2c1 | 2.42 µM | > 100
CCN(c1ccccc1)S(=O)(=O)c1ccc(Cl)c(NC(=O)CSc2n[nH]c(N)n2)c1 | > 100 µM (inactive) | > 100
Cc1ccc(-c2nc3ccc(NS(=O)(=O)c4ccccc4)cc3[nH]2)o1 | > 100 µM (inactive) | 33.6
O=C(NCc1ccco1)c1ccc(COc2cccc3ccccc23)cc1 | > 100 µM (inactive) | 
CC1(C)CC2CC(C)(CN2c2ncnc3ccccc23)C1 (centres undefined) | > 100 µM (inactive) | > 100
Cc1cc(C(=O)COC(=O)CNC(=O)c2ccccc2)c(C)n1CC1CCCO1 (centres undefined) | > 100 µM (inactive) | 
COc1cc(NC(=O)COC(=O)CC(C)(C)C)c(C)cc1[N+](=O)[O-] | > 100 µM (inactive) | > 100
O=C(COc1ccccc1Cl)Nc1nc(-c2ccncc2)cs1 | > 100 µM (inactive) | 
Cn1cc(CN2CCCC(C(=O)c3cccs3)C2)c(-c2cccc(Cl)c2)n1 (centres undefined) | > 100 µM (inactive) | 
CCOc1ccc2nc(NC(=O)CSc3nc(SC)ns3)sc2c1 | > 100 µM (inactive) | > 100
CC1Cc2ccccc2N1C(=O)CN1C(=O)NC(C)(CCc2ccccc2)C1=O (centres undefined) |  | > 100
CC(=O)NCCOc1nc(N2CCCCC2)nc(N2CCCCC2)n1 | > 100 µM (inactive) | > 100
O=C(c1cnc(Cc2c[nH]c3ccccc23)c(I)c1)N1CCCCC1 | > 100 µM (inactive) | > 100
O=C(Nc1cccc(Oc2ccc3c(c2)C(=O)NC3=O)c1)c1cccs1 | > 100 µM (inactive) | 
O=C(O)CC(CC(=O)Nc1ccc(Oc2ccccc2)cc1)c1ccccc1 (centres undefined) | > 100 µM (inactive) | > 100
Nc1ccccc1Nc1ccc([N+](=O)[O-])cc1[N+](=O)[O-] | > 100 µM (inactive) | 
Cc1onc(-c2ccccc2Cl)c1C(=O)OCC(=O)c1ccccc1 |  | > 100
O=C(Nc1ccn(Cc2ccc(Cl)cc2)n1)c1ccccc1 |  | > 100
Cc1ccc(-n2nc(C)c3c(C)c(CCC(=O)O)c(C)nc32)cc1C | > 100 µM (inactive) | > 100
Cc1nonc1C1CCCN1C(=O)c1cc(COc2ccc(F)cc2F)on1 (centres undefined) | > 100 µM (inactive) | 
O=C(NCCc1csc(-c2ccccc2)n1)c1ccccc1F | > 100 µM (inactive) | 

Compound | AC50 | AC50 [1] [µM]
CC(C)(C)c1ccc(-c2noc(CCC(=O)NCc3ccco3)n2)cc1 | > 100 µM (inactive) | 
S=c1nc(-c2cc(Cl)cc(Cl)c2)[nH][nH]1 | > 100 µM (inactive) | 
C[C@]12CCC(=O)C[C@H]1CC[C@@H]1[C@@H]2CC[C@]2(C)C(=O)CC[C@@H]12 | > 100 µM (inactive) | 
Cc1cc(C)n(CC(O)COc2ccc3ccccc3c2)n1 (centres undefined) | > 100 µM (inactive) | > 100
COCC#Cc1ccc2c(c1)O[C@@H](CN(C)S(=O)(=O)c1cccc(F)c1)[C@@H](C)CN([C@H](C)CO)S2(=O)=O |  | > 100
CN1OC[C@@H]2CN(C(=O)c3ccco3)[C@H](c3ccc(-c4ccc(C#N)cc4)cc3)C[C@@H]21 |  | > 100
COc1ccc(OC)c(-c2csc(NC(=O)C3COc4ccccc4O3)n2)c1 (centres undefined) | > 100 µM (inactive) | 
O=C(Cc1c(Cl)cccc1Cl)Nc1cccc(S(=O)(=O)N2CCOCC2)c1 | > 100 µM (inactive) | 
COc1cccc(-c2ccc(NC(=O)C3CCCN(Cc4cnn(C(C)C)c4)C3)cc2)c1 (centres undefined) |  | > 100
O=c1[nH]c(C2CCN(S(=O)(=O)c3ccc4c(c3)OCCO4)CC2)nc2c1nnn2Cc1ccccc1F | > 100 µM (inactive) | > 100
COc1cccc(CNC(=O)CCSCc2ccccc2F)c1 | > 100 µM (inactive) | > 100
O=c1[nH]c(C2CCCN(S(=O)(=O)c3ccccc3Cl)C2)nc2c1nnn2Cc1ccc2c(c1)OCCO2 (centres undefined) | > 100 µM (inactive) | > 100
CN(CCOc1ccccc1)S(=O)(=O)c1ccccc1C#N | > 100 µM (inactive) | 
CCOc1ccc2nc(SCC(=O)Nc3nonc3C)[nH]c2c1 | > 100 µM (inactive) | > 100
COC(=O)c1sc(C(C)(C)C)cc1CS(=O)(=O)c1ccc(Cl)cc1 | > 100 µM (inactive) | 
CN(c1ccccc1)S(=O)(=O)c1cccc(NC(=O)CCNC(=O)c2ccc([N+](=O)[O-])cc2)c1 | > 100 µM (inactive) | > 100
COc1ccc(NC(=O)CN(c2ccccc2OC)S(=O)(=O)c2cccs2)cc1Cl | > 100 µM (inactive) | 
COC(=O)c1ccc2nc(-c3ccc(OC)c(OC)c3)c(Cc3ccc(C)cc3)n2c1 | > 100 µM (inactive) | 
Cc1nn(C(C)(C)C)c(OC(=O)CC(C)C)c1S(=O)(=O)c1ccccc1 | > 100 µM (inactive) | 
Cc1cccc(NC(=O)CN(C)S(=O)(=O)c2cccs2)c1 | > 100 µM (inactive) | 
